From patent US9403823B2, “Protein kinase inhibitors” (ORIBASE PHARMA, priority 2012, dated 2016) come the findings set out here.

Structures are written as SMILES. pEC50: −log10 of the molar value. Read-outs that look alike come from different tables or passages of the source.

The target in one assay is T1, PDGFRA (PDGFR alpha) (Homo sapiens, UniProt P16234).
T1 construct: purchased Invitrogen
Briefly: In vitro kinase assay (Z'-LYTE), PDGFRA. Format: biochemical. The conditions noted are these: read-out: % of inhibition of the kinase compared to the control. The gist of the method:
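Z'-LYTE FRET assays measure the ratio of protease-cleaved to uncleaved peptide, read as 400 nm-excited emission ratio, in 50 mM HEPES pH 7.5, 10 mM MgCl2, 1 mM EGTA, 0.01% BRIJ-35, 1% DMSO, at pre-determined apparent ATP Km. Compounds tested at 100 nM against VEGFR1 and PDGFRA, and at 10 μM against ABL and ABL T315I.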

For another assay, the target named is T2, KDR (VEGFR2) (Homo sapiens, UniProt P35968).
T2 construct: purchased Invitrogen
Briefly: In vitro kinase assay (Z'-LYTE), KDR (VEGFR2). Format: biochemical. Particulars: read-out: % of inhibition of the kinase compared to the control. An outline of the steps:
(§1)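 FRET-based Z'-LYTE coupled-enzyme assay: kinase phosphorylates a dual-fluorophore peptide, unphosphorylated peptide is protease-cleaved, and donor/acceptor emission ratio after 400 nm excitation quantifies progress. Buffer 50 mM HEPES pH 7.5, 10 mM MgCl2, 1 mM EGTA, 0.01% BRIJ-35; 1% DMSO final. Single compound concentration: 100 nM, or 10 μM for ABL and ABL T315I.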

The target in the next assay is T3, SRC (Homo sapiens, UniProt P12931).
T3 construct: purchased Invitrogen
Briefly: In vitro kinase assay (Z'-LYTE), SRC. Format: biochemical. Particulars: read-out: % of inhibition of the kinase compared to the control. An outline of the steps:
as §1

Another assay deals with T4, EGFR (ErbB1) (Homo sapiens, UniProt P00533).
T4 construct: purchased Invitrogen
Briefly: In vitro kinase assay (Z'-LYTE), EGFR (ErbB1). Format: biochemical. The conditions noted are these: read-out: % of inhibition of the kinase compared to the control. The gist of the method: as §1

The target of another assay is T5, BRAF (Homo sapiens, UniProt P15056).
T5 construct: purchased Invitrogen
Briefly: In vitro kinase assay (Z'-LYTE), BRAF. Format: biochemical. The conditions noted are these: read-out: % of inhibition of the kinase compared to the control. The gist of the method: as §1

The subject of the next assay is HuH7 cell line. Briefly: In vitro cell proliferation assay (MTT), HuH7. Type of assay: cell-based. The conditions noted are these: Homo sapiens, Huh-7; HuH7, 72 hr, MTT; read-out: EC50, anti-proliferative activity. As for the experimental part: (§2) 2) In Vitro Cell Proliferation Assays (Table 22 to Table 35)
(§3) Cancer cell lines (5×10^3 cells per well) or HUVEC (1×10^4 cells per well) or HRMEC (1×10^4 cells per well) were distributed in 96-well plates and incubating in duplicate with escalating concentrations (10 nM to 3 μM) of compounds for 72 hr. Cell proliferation was measured using MTT (3[4,5-dimethylthiazol-2-yl]-2,5-diphenyltetrazolium bromide).

In another assay the target is T6, FGFR2 (Homo sapiens, UniProt P21802).
T6 construct: purchased Invitrogen
Briefly: In vitro kinase assay (Z'-LYTE), FGFR2. Format: biochemical. The conditions noted are these: read-out: % of inhibition of the kinase compared to the control. The gist of the method:
as §1

A further assay has as its system HepG2 cell line. Briefly: In vitro cell proliferation assay (MTT), HepG2. Type of assay: cell-based. Particulars: Homo sapiens, read-out: EC50, anti-proliferative activity. The gist of the method:
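Cancer cell lines were seeded at 5×10^3 cells per well and HRMEC at 1×10^4 cells per well, then incubated in duplicate with escalating compound concentrations (10 nM to 3 μM) for 72 hr. Proliferation was read by MTT.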

The next assay relates to A549 cell line. Briefly: In vitro cell proliferation assay (MTT), A549. Format: cell-based. The conditions noted are these: Homo sapiens, read-out: EC50, anti-proliferative activity. How it is done: as §2, §3
For another assay, the system named is MDA-MB-231 cell line. Briefly: In vitro cell proliferation assay (MTT), MDA-MB-231. Particulars: Homo sapiens, read-out: EC50, anti-proliferative activity. Type of assay: cell-based. How it is done: as §2, §3
A further assay concerns HUVEC. Briefly: In vitro cell proliferation assay (MTT), HUVEC. Format: cell-based. The conditions noted are these: Homo sapiens, read-out: EC50, anti-proliferative activity. An outline of the steps:
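HUVEC cells were plated at 1×10^4 cells per well in 96-well plates and exposed in duplicate to increasing compound concentrations from 10 nM to 3 μM for 72 hr. Proliferation was then quantified with MTT (3[4,5-dimethylthiazol-2-yl]-2,5-diphenyltetrazolium bromide) to determine anti-proliferative activity.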

A further assay has as its system HeLa cell line. Briefly: In vitro cell proliferation assay (MTT), HeLa. Type of assay: cell-based. The conditions noted are these: Homo sapiens, read-out: EC50, anti-proliferative activity. As for the experimental part:
as §2, §3

T6 sequence (P21802 22-821): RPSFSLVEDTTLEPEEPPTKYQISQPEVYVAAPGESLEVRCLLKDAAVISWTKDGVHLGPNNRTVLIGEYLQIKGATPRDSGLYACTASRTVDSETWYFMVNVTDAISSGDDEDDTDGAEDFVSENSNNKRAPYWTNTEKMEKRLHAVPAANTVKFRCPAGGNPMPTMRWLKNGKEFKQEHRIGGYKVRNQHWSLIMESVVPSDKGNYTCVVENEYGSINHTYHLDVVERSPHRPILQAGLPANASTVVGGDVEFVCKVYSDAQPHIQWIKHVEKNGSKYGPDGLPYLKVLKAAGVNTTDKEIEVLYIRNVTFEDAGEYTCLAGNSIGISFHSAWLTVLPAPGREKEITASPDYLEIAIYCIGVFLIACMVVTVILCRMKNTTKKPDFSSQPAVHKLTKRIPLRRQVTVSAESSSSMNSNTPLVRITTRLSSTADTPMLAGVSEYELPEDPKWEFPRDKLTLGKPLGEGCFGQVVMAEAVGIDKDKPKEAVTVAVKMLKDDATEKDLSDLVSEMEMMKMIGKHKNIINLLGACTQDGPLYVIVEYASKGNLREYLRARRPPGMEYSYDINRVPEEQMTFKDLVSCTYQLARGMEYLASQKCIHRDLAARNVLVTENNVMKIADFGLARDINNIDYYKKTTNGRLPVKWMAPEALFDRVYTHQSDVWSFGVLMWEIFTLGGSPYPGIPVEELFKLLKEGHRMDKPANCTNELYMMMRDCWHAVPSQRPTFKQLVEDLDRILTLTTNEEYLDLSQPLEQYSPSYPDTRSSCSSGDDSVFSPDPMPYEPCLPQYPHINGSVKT
T5 sequence (P15056 whole entry): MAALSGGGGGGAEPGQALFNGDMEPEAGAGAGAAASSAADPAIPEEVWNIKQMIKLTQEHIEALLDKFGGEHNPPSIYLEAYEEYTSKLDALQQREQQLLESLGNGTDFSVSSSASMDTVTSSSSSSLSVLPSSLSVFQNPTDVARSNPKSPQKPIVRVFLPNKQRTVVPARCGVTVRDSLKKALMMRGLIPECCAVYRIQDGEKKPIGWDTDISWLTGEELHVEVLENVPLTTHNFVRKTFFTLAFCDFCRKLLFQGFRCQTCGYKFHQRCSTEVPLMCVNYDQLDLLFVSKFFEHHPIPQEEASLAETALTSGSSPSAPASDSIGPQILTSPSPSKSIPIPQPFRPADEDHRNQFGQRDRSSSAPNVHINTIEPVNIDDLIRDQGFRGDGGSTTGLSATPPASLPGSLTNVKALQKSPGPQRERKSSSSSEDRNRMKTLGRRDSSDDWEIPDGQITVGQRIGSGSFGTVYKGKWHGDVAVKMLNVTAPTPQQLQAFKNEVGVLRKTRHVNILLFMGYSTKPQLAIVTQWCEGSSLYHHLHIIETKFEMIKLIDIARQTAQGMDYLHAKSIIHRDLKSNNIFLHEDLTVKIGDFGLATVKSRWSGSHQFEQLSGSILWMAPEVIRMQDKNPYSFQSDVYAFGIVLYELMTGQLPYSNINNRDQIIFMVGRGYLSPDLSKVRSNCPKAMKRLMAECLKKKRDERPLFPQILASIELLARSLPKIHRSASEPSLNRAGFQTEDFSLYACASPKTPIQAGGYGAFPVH
T1 sequence (P16234 24-1089): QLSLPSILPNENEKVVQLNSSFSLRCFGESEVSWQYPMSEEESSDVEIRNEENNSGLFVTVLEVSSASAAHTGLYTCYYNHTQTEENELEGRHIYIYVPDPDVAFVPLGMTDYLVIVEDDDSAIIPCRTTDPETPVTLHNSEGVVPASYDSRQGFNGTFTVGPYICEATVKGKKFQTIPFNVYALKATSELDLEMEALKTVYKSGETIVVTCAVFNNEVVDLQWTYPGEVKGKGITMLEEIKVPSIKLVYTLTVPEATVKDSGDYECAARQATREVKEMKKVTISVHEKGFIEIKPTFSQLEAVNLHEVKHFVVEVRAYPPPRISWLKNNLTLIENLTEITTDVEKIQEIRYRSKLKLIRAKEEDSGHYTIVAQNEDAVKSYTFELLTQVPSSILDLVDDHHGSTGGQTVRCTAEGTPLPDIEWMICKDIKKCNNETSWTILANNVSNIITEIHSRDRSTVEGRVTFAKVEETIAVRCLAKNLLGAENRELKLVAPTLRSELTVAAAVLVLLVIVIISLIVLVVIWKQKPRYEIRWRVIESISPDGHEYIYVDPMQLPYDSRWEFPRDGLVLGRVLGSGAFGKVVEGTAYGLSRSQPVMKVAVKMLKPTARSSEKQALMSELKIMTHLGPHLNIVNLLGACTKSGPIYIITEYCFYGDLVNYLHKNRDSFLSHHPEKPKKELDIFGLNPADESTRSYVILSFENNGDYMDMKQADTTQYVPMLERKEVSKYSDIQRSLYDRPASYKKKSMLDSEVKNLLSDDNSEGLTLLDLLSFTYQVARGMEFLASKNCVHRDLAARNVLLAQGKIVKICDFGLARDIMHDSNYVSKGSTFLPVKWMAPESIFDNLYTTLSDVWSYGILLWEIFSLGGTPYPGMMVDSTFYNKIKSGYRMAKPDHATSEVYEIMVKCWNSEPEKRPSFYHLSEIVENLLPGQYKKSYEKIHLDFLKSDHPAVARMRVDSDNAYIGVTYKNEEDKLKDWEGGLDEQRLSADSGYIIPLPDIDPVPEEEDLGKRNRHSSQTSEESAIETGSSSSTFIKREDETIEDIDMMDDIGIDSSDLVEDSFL
T3 sequence (P12931 whole entry): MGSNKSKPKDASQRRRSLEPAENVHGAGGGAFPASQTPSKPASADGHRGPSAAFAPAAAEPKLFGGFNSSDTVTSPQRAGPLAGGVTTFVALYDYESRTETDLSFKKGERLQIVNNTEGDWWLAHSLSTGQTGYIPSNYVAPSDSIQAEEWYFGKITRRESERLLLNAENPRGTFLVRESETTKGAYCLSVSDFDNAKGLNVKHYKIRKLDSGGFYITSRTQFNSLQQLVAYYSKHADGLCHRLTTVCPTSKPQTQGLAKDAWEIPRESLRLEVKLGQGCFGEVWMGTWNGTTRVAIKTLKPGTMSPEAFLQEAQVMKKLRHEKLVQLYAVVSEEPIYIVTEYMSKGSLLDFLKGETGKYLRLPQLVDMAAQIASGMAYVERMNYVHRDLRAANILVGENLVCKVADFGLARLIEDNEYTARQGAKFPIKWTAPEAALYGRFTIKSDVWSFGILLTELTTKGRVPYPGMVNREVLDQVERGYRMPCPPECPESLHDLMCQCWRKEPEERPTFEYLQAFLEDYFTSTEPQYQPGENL
T2 sequence (P35968 20-1356): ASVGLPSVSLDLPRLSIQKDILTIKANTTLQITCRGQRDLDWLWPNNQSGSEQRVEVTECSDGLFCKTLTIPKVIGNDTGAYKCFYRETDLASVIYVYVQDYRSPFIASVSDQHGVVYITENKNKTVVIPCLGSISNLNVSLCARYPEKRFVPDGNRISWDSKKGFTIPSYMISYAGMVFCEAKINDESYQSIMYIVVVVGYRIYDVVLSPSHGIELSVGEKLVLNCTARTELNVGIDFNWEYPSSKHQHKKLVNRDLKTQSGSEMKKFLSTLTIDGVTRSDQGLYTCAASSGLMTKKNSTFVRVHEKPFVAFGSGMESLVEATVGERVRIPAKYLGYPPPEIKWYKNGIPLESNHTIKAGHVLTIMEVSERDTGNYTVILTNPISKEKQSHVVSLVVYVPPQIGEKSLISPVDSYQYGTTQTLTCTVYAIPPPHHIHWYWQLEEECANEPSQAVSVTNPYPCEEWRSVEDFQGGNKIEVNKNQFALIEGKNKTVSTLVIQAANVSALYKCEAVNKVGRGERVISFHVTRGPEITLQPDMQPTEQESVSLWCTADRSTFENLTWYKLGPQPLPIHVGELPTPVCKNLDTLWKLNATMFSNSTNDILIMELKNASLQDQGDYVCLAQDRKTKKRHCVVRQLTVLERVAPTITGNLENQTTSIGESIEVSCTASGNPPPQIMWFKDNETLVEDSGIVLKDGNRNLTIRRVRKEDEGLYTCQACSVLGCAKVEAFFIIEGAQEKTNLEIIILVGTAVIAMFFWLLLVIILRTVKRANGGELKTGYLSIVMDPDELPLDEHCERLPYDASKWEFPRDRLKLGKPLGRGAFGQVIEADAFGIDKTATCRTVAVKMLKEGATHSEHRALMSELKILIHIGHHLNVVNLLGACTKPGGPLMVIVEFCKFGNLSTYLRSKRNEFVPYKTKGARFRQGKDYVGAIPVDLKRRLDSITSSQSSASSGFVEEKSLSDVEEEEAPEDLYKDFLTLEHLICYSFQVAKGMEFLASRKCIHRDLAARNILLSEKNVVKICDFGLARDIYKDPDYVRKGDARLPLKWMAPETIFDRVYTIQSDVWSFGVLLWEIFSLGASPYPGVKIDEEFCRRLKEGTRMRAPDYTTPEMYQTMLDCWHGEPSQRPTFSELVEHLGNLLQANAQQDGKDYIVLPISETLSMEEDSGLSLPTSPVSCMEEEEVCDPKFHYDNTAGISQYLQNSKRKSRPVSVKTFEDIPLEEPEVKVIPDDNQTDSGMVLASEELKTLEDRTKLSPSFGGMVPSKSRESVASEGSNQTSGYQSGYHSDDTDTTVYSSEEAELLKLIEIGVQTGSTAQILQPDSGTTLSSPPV

As usually defined, the inhibition is the change of the read-out against control, counted positive when it falls. Usually pEC50 stands for −log10 of the EC50, conventionally taken in molar units. `CC(=O)c1cc2cc(NCc3cc(NC(=O)c4ccc(CN5CCN(C)CC5)cc4)ccc3C)cnc2[nH]1` [OR0734, N-{3-[(2-Acetyl-1H-pyrrolo[2,3-b]pyridin-5-ylamino)-methyl]-4-methyl-phenyl}-4-(4-methyl-piperazin-1-ylmethyl)-benzamide]: the inhibition at 0.1 µM is no less than 50% at PDGFRA (PDGFR alpha); no less than 50% at KDR (VEGFR2); no less than 50% at SRC; no less than 50% on EGFR (ErbB1); less than 50% on BRAF; less than 50% at FGFR2. In the assay with HuH7 cell line, the pEC50 is no more than 6.00.
Consider `CC(=O)c1cc2cc(NCc3cc(NC(=O)c4ccc(CN5CCN(C)CC5)c(F)c4)ccc3C)cnc2[nH]1` [OR0885, N-{3-[(2-Acetyl-1H-pyrrolo[2,3-b]pyridin-5-ylamino)-methyl]-4-methyl-phenyl}-3-fluoro-4-(4-methyl-piperazin-1-ylmethyl)-benzamide], for which the pEC50 in the assay with HepG2 cell line (HepG2, 72 h) is 6.00 to 7.00; in the assay on A549 cell line (A549, 72 hr, MTT), no more than 6.00; with MDA-MB-231 cell line (MDA-MB-231, 72 h) it was 6.00 to 7.00; in the assay with HUVEC (72 hr, MTT), no more than 6.00; in the assay on HeLa cell line (72 hr, MTT) it was no more than 6.00. In addition, the inhibition at 0.1 µM at KDR (VEGFR2), at EGFR (ErbB1), at BRAF and at FGFR2 was no less than 50% each time.
On to `CC(=O)c1cc2cc(NCc3cccc(NC(=O)c4ccc(CN5CCN(C)CC5)c(C(F)(F)F)c4)c3)cnc2[nH]1` [OR0926, N-{3-[(2-Acetyl-1H-pyrrolo[2,3-b]pyridin-5-ylamino)-methyl]-phenyl}-4-(4-methyl-piperazin-1-ylmethyl)-3-trifluoromethyl-benzamide], for which the pEC50 in the assay with HepG2 cell line (HepG2, 72 h) is no less than 7.00; in the assay with A549 cell line (A549, 72 h), 6.00 to 7.00; in the assay on MDA-MB-231 cell line (MDA-MB-231, 72 h), no less than 7.00; in the assay on HUVEC (72 h) it was 6.00 to 7.00; in the assay with HeLa cell line (72 h) it was 6.00 to 7.00. The inhibition at 0.1 µM at KDR (VEGFR2) is no less than 50%; at EGFR (ErbB1), no less than 50%; at BRAF, less than 50%; at FGFR2, no less than 50%.
Turning to `CC(=O)c1cc2cc(NCc3cc(NC(=O)c4ccc(CN5CCN(C)CC5)c(C(F)(F)F)c4)ccc3F)cnc2[nH]1` [OR0972, N-{3-[(2-Acetyl-1H-pyrrolo[2,3-b]pyridin-5-ylamino)-methyl]-4-fluoro-phenyl}-4-(4-methyl-piperazin-1-ylmethyl)-3-trifluoromethyl-benzamide], the pEC50 in the assay with HepG2 cell line (HepG2, 72 h) is no less than 7.00; in the assay on A549 cell line (A549, 72 h), 6.00 to 7.00; in the assay on MDA-MB-231 cell line (MDA-MB-231, 72 h), no less than 7.00; in the assay on HUVEC (72 h), 6.00 to 7.00; in the assay on HeLa cell line (72 h) it was 6.00 to 7.00. For the same molecule, the inhibition at 0.1 µM was no less than 50% at KDR (VEGFR2), no less than 50% at EGFR (ErbB1), less than 50% at BRAF and no less than 50% on FGFR2.
As to `CC(=O)c1cc2cc(NC(=O)c3cccc(CNC(=S)c4cccc(C(F)(F)F)c4)c3)cnc2[nH]1` [OR1012, N-[3-(2-Acetyl-1H-pyrrolo[2,3-b]pyridin-5-ylcarbamoyl)-benzyl]-3-trifluoromethyl-thiobenzamide], the pEC50 in the assay with HepG2 cell line (HepG2, 72 hr, MTT) was no more than 6.00; with A549 cell line (A549, 72 hr, MTT), no more than 6.00; in the assay on MDA-MB-231 cell line (MDA-MB-231, 72 hr, MTT) it was no more than 6.00; in the assay on HUVEC (72 hr, MTT), no more than 6.00; in the assay on HeLa cell line (72 hr, MTT) it was no more than 6.00. The inhibition at 0.1 µM on PDGFRA (PDGFR alpha), at KDR (VEGFR2), at SRC, on EGFR (ErbB1), at BRAF and on FGFR2 was less than 50% each time.
In the case of `CC(=O)c1cc2cc(NCc3cc(NC(=S)Nc4cccc(C(F)(F)F)c4)ccc3C)cnc2[nH]1` [OR1015, 1-{3-[(2-Acetyl-1H-pyrrolo[2,3-b]pyridin-5-ylamino)-methyl]-4-methyl-phenyl}-3-(3-trifluoromethyl-phenyl)-thiourea], the pEC50 with HepG2 cell line (HepG2, 72 h) was 6.00 to 7.00; in the assay on A549 cell line (A549, 72 hr, MTT), no more than 6.00; with MDA-MB-231 cell line (MDA-MB-231, 72 hr, MTT), no more than 6.00; with HUVEC (72 h), 6.00 to 7.00; with HeLa cell line (72 hr, MTT), no more than 6.00. Also, the inhibition at 0.1 µM on PDGFRA (PDGFR alpha), on KDR (VEGFR2), at SRC, at EGFR (ErbB1), on BRAF and on FGFR2 was less than 50% throughout.
As for `CC(=O)c1cc2cc(NCc3cc(NC(=O)C4CCC(C(F)(F)F)CC4)ccc3F)cnc2[nH]1` (stereo not drawn) [OR1058, 4-Trifluoromethyl-cyclohexanecarboxylic acid {3-[(2-acetyl-1H-pyrrolo[2,3-b]pyridin-5-ylamino)-methyl]-4-fluoro-phenyl}-amide], the pEC50 with HepG2 cell line (HepG2, 72 hr, MTT) is no more than 6.00; with A549 cell line (A549, 72 hr, MTT), no more than 6.00; in the assay with MDA-MB-231 cell line (MDA-MB-231, 72 hr, MTT), no more than 6.00; with HUVEC (72 hr, MTT), no more than 6.00; with HeLa cell line (72 hr, MTT), no more than 6.00.
As to `CC(=O)c1cc2cc(NCc3cc(NC(=O)c4cc(N5CCN(C)CC5)cc(C(F)(F)F)c4)ccc3F)cnc2[nH]1` [OR1060, N-{3-[(2-Acetyl-1H-pyrrolo[2,3-b]pyridin-5-ylamino)-methyl]-4-fluoro-phenyl}-3-(4-methyl-piperazin-1-yl)-5-trifluoromethyl-benzamide], the pEC50 in the assay on HepG2 cell line (HepG2, 72 h) was no less than 7.00; in the assay with A549 cell line (A549, 72 h), 6.00 to 7.00; with MDA-MB-231 cell line (MDA-MB-231, 72 h), 6.00 to 7.00; in the assay on HUVEC (72 h), 6.00 to 7.00; in the assay with HeLa cell line (72 hr, MTT) it was no more than 6.00.
As for `COc1ccccc1C(=O)Nc1ccc(F)c(CNc2cnc3[nH]c(C(C)=O)cc3c2)c1` [OR1063, N-{3-[(2-Acetyl-1H-pyrrolo[2,3-b]pyridin-5-ylamino)-methyl]-4-fluoro-phenyl}-2-methoxy-benzamide], the pEC50 with HepG2 cell line (HepG2, 72 hr, MTT) was no more than 6.00; in the assay on A549 cell line (A549, 72 hr, MTT), no more than 6.00; in the assay on MDA-MB-231 cell line (MDA-MB-231, 72 hr, MTT) it was no more than 6.00; with HUVEC (72 hr, MTT), no more than 6.00; in the assay on HeLa cell line (72 hr, MTT), no more than 6.00.
For the molecule `CCCCCCNC(=O)c1cc2cc(NCc3cc(NC(=O)c4ccc(CN5CCN(C)CC5)c(C(F)(F)F)c4)ccc3C)cnc2[nH]1` [OR1069, 5-{2-Methyl-5-[4-(4-methyl-piperazin-1-ylmethyl)-3-trifluoromethyl-benzoylamino]-benzylamino}-1H-pyrrolo[2,3-b]pyridine-2-carboxylic acid hexylamide], the pEC50 with HepG2 cell line (HepG2, 72 h) was 6.00 to 7.00; with MDA-MB-231 cell line (MDA-MB-231, 72 h), 6.00 to 7.00; in the assay with HUVEC (72 h), 6.00 to 7.00; with HeLa cell line (72 hr, MTT), no more than 6.00.
